Source: publication PMC4042574, “Phenolic Lipids Affect the Activity and Conformation of Acetylcholinesterase from Electrophorus electricus (Electric eel)” (Nutrients, 2014)
Like-named read-outs stand apart in the source and are kept apart here.

Molecular target: acetylcholinesterase (AChE) from Electrophorus electricus (electric eel) (Electrophorus electricus, UniProt O42275)
Assay: Ellman assay, […] nm
Type: biochemical

Sequence of acetylcholinesterase (AChE) from Electrophorus electricus (electric eel) (O42275 24-633): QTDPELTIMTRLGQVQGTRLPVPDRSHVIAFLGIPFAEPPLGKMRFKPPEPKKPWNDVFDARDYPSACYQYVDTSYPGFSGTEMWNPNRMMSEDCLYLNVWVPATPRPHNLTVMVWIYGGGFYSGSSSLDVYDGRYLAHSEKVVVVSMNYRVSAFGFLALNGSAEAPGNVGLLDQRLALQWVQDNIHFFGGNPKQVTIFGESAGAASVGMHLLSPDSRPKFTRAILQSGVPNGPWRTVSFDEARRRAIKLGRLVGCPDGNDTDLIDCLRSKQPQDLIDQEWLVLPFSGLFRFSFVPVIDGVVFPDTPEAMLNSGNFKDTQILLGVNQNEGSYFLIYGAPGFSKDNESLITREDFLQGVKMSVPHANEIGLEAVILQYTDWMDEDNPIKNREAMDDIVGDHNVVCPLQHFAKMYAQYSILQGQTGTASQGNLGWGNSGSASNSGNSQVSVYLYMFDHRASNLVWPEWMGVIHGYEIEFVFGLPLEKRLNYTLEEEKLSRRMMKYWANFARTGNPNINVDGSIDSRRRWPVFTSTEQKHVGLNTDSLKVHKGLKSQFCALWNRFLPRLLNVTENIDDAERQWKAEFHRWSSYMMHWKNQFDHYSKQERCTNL

Compound: CCCCCCCCCCCCCCCCCCCc1cc(O)cc(O)c1 [AR 19:0]
- IC50: 77 ± 1.25 µM

Compound: Cardol
- IC50 (acetylthiocholine iodide (0.476 μM as printed), pH 8.0, 37 °C, 5 min pre-incubation): 3.5 ± 0.2 µM

Compound: CCCCCCCCCCCCCCCCCCCCCc1cc(O)cc(O)c1 [AR 21:0]
- IC50: 44 ± 0.47 µM

Compound: CCCCCCCCCCCCCCCCCCCCCCCCCc1cc(O)cc(O)c1 [AR 25:0]
- IC50: 44 ± 4.24 µM

Compound: CCCCCCCCCCCCCCCc1cc(O)cc(O)c1 [AR 15:0]
- IC50: > 94 µM
